Our source for the IC50 values is patent US20230219978A1, “COMPOUND HAVING MACROCYCLIC STRUCTURE AND USE THEREOF” (SCINNOHUB PHARMACEUTICAL CO., LTD, priority 2020, published 2023).

What is called IC50 is the concentration that gives 50% inhibition.

What all share (type): biochemical
One assay deals with T1, BTK (Homo sapiens, UniProt Q06187).
T1 construct: purchased Carna 08-180
In words: In vitro kinase activity assay (mobility shift assay), BTK. The conditions noted are these: ATP 71 μM, reaction time 30 min. In short, it runs like this:
(§1)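 Compounds: 10-point 3-fold series starting 1000 nM, preincubated 10 min RT with kinase; ATP + substrate then added, 30-240 min RT. Caliper conversion read, normalised to no-enzyme and no-compound controls, dose-response fit gives IC50.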

A further assay addresses T2, RET wt (Homo sapiens, UniProt P07949).
T2 construct: purchased Carna 08-159
In words: In vitro kinase activity assay (mobility shift assay), RET wild type. As to conditions: ATP 16 μM, reaction time 60 min. In short, it runs like this: as §1

The next assay has as its target T3, SRC (Homo sapiens, UniProt P12931).
T3 construct: purchased Carna 08-173
In words: In vitro kinase activity assay (mobility shift assay), SRC. As to conditions: ATP 19 μM, reaction time 30 min. The method, then: (§2) The IC50 (half inhibitory concentration) values of the compounds were used as an indicator to evaluate the inhibitory effect of the compound on RET wild-type, RET mutant, TRKa, SRC, BTK and/or mutated BTK kinase.
(§3) Using the method of Mobility shift assay, the compounds were tested for inhibitory activity against the following kinases: RET wild type, RET mutant, TRKa, SRC, BTK and/or mutated BTK. The initial concentration of the test compound was 1000 nM, 3-fold dilution, 10 concentrations, detected in a well for each concentration.
(§4) 20 mM hydroxyethylpiperazineethanesulfonic acid (Hepes) (pH 7.5) buffer, 10 mM MgCl2, 1 mM ethylene glycol bis(aminoethyl ether)tetraacetic acid (EGTA), 0.02% polyoxyethylene lauryl ether (Brij35), 0.02 mg/ml […] (BSA), 0.1 mM Na3VO4, 2 mM dithiothreitol (DTT), 1% DMSO.
(§5) The test compounds were dissolved in 100% dimethyl sulfoxide (DMSO) system, and prepared as 10 mM for use, and stored in a nitrogen cabinet away from light.
(§6) • (1) Preparing 1× kinase reaction buffer. • (2) Preparation of compound concentration gradient: the initial concentration of the compounds was 1000 nM, which was diluted as 100-fold final concentration of solution in 100% dimethyl sulfoxide (DMSO) in a 384-well plate. The compound was accurately 3-fold diluted with the kinase buffer solution, 10 concentrations in total, and the final concentration was 0.0508 nM. The 100-fold final concentration of solution in 100% dimethyl sulfoxide (DMSO) was obtained by dilution in 384 source plate. The liquid separator Echo 550 was used to transfer 250 nl of 100-fold final concentration of compound to the target 384 well plate. 250 nl of DMSO was added to the positive and negative control wells. • (3) 2.5-fold final concentration of kinase solution was prepared by the 1× kinase buffer. • (4) 10 4, of 2.5-fold final concentration of kinase solution was added to the compound well and the positive control well, respectively; 10 4, of 1× kinase buffer was added to the negative control well. • (5) After centrifuging at 1000 rpm for 30 second, the reaction plate was shaken and mixed, followed by incubation at room temperature for 10 min. • (6) a mixed solution of 25/15-fold final concentration of adenosine triphosphate (ATP) and kinase substrate was prepared by 1× kinase buffer. • (7) The mixed solution (15 μL) of 25/15-fold final concentration of adenosine triphosphate (ATP) and substrate was added to initiate the reaction. • (8) 384-well plate was centrifuged at 1000 rpm for 30 second, shaken and mixed well, and then incubated at room temperature for 30-240 min. • (9) After stopping the kinase reaction, the plate was centrifugated at 1000 rpm for 30 second, shaken and mixed well. • (10)The conversion rate was read with Caliper EZ Reader.
(§7) wherein Conversion%_sample is the conversion rate reading of the sample; Conversion%_min: the mean value of negative control wells, representing the conversion rate reading of wells without enzymes; Conversion%_max: the mean value of positive control wells, representing the conversion rate reading of wells without compound inhibition.
(§8) The log value of concentration was taken as the X axis, and the percentage inhibition rate was taken as the Y axis. Graphpad 6.0 analysis software was used to fit the dose-response curve, so as to obtain the IC50 value of each compound on the enzyme activity

The target in another assay is T4, BTK C481S (Homo sapiens, UniProt Q06187, C481S).
T4 construct: purchased Carna 08-547
T4 sequence (Q06187 whole entry C481S): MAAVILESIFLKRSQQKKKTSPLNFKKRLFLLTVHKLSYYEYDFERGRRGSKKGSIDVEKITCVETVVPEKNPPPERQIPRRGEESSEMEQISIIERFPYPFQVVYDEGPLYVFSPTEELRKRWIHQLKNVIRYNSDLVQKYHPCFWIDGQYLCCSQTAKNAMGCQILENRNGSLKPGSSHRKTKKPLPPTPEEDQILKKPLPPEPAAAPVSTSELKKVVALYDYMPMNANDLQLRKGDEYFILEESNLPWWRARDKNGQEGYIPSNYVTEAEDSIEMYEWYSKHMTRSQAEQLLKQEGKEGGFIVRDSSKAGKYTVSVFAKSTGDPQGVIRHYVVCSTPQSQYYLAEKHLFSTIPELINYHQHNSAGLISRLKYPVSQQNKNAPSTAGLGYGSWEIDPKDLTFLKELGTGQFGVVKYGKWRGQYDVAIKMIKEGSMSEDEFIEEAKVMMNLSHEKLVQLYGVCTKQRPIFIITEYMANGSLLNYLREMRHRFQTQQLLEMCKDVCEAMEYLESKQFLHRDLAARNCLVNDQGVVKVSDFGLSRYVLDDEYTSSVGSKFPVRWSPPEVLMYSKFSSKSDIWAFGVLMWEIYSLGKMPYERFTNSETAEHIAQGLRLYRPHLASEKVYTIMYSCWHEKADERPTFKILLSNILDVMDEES
In words: In vitro kinase activity assay (mobility shift assay), BTK C481S. The conditions noted are these: ATP 90 μM, reaction time 30 min. The method, then:
as §2, §3, §4, §5, §6, §7, §8

For the next assay, the target named is T5, RET G810R (Homo sapiens, UniProt P07949, G810R).
T5 construct: purchased Proqinase 1724-0000-1
T5 sequence (P07949 29-1114 G810R): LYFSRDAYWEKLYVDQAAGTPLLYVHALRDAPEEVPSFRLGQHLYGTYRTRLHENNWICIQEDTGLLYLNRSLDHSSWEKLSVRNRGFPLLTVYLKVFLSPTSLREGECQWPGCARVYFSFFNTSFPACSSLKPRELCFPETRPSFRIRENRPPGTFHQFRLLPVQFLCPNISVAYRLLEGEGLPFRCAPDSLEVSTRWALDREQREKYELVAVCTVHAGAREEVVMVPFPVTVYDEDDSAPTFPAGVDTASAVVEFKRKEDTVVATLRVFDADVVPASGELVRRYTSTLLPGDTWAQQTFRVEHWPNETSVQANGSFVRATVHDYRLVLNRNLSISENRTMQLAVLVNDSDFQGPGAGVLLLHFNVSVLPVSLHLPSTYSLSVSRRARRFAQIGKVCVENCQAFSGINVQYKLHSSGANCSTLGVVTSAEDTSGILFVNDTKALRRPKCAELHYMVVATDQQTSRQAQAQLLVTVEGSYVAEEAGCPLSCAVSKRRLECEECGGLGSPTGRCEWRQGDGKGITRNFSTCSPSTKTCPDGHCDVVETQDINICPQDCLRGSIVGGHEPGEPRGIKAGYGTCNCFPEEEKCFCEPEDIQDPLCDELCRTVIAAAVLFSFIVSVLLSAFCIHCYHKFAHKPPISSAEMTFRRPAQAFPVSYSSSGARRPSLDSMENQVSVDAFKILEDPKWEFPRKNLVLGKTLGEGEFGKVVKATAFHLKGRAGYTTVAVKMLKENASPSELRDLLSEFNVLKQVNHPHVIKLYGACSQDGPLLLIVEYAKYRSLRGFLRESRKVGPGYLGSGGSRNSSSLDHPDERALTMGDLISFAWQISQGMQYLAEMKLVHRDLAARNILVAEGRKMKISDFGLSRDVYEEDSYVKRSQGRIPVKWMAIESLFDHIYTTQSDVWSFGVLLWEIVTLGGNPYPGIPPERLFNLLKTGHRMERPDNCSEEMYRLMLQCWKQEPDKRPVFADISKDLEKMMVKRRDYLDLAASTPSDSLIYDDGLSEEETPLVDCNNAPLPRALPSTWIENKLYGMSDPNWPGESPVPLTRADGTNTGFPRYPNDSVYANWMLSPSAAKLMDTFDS
Put plainly: In vitro kinase activity assay (mobility shift assay), RET G810R. As to conditions: ATP 201 μM, reaction time 4 h. In short, it runs like this:
as §1

The target of another assay is T6, TRKa (Homo sapiens, UniProt P04629).
T6 construct: purchased Carna 08-186
T6 sequence (P04629 33-796): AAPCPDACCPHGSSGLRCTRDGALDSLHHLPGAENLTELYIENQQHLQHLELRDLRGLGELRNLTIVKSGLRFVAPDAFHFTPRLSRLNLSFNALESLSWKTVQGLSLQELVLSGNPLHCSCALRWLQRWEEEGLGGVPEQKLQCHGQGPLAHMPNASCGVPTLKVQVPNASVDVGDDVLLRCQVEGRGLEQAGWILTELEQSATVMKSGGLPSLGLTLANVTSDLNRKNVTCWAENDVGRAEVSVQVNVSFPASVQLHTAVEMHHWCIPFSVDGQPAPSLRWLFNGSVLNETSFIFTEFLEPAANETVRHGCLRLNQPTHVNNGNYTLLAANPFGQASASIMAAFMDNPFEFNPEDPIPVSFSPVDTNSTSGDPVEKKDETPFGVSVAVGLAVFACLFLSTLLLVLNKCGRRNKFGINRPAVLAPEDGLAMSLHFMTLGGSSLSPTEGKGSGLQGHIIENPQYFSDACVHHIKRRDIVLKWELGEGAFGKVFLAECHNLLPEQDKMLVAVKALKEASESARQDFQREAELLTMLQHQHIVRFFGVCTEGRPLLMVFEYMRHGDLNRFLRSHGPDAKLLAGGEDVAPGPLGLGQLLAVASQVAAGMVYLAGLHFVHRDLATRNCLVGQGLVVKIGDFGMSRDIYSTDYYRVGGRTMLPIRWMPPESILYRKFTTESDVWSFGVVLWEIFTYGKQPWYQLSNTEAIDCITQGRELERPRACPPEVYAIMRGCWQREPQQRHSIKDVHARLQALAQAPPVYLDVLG
Put plainly: In vitro kinase activity assay (mobility shift assay), TRKa. As to conditions: ATP 47.8 μM, reaction time 30 min. The method, then: as §2, §3, §4, §5, §6, §7, §8

For the next assay, the target named is T7, RET V804M (Homo sapiens, UniProt P07949, V804M).
T7 construct: purchased signalchem R02-12GG
T7 sequence (P07949 29-1114 V804M): as the sequence (P07949 29-1114 G810R) above, with V776M, R782G counted along it
Put plainly: In vitro kinase activity assay (mobility shift assay), RET V804M. As to conditions: ATP 5.4 μM, reaction time 60 min. The method in brief:
as §1

T3 sequence (P12931 whole entry): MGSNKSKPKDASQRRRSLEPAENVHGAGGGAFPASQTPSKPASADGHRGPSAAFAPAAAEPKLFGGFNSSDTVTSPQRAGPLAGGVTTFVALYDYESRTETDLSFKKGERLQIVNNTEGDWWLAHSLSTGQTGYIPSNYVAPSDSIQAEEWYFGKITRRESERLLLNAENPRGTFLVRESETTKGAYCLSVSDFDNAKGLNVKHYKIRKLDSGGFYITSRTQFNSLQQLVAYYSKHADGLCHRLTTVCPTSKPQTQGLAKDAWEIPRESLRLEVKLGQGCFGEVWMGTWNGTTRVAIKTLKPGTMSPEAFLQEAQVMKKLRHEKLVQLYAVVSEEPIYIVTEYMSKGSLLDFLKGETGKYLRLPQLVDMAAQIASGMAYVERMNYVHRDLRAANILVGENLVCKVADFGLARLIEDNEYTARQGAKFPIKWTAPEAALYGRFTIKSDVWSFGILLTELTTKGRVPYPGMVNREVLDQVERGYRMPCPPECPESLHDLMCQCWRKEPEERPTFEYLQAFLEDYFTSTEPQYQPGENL
T2 sequence (P07949 29-1114): as the sequence (P07949 29-1114 G810R) above, with R782G counted along it
T1 sequence (Q06187 whole entry): as the sequence (Q06187 whole entry C481S) above, with S481C counted along it

Consider `C[C@H]1CNC(=O)c2cnn3cc(-c4ccccc4Cl)c(nc23)NCc2cc(F)cnc2O1` [Compound 4, (S, 1^3E, 1^4E)-1^6-(2-chlorophenyl)-4^5-fluoro-6-methyl-5-oxa-2,8-diaza-1(5,3)-pyrazolo[1,5-a]pyrimidina-4(3,2)-pyridinacyclononaphan-9-one], for which the IC50 at BTK turned out to be 3.39 nM; at RET wt, 2.2 nM; on SRC, 0.096 nM; at BTK C481S, 9.84 nM; at RET G810R it was 21 nM; on TRKa, 294 nM. Also, the half-maximal inhibitory concentration (IC50) on RET V804M was 161 nM.
As to `CC(=O)Nc1ccc(-c2cn3ncc4c3nc2NCc2cc(F)cnc2O[C@@H](C)CNC4=O)cc1` [Compound 18], the 50% inhibitory concentration (IC50) on BTK, at RET wt, on SRC, on BTK C481S, at RET G810R and on RET V804M was greater than 10000 nM throughout.
With `CNC(=O)c1ccc(-c2cn3ncc4c3nc2NCc2cc(F)cnc2O[C@@H](C)CNC4=O)cc1` [Compound 19, 4-((S, 1^3E, 1^4E)-4^5-fluoro-6-methyl-9-oxo-5-oxa-2,8-diaza-1(5,3)-pyrazolo[1,5-a]pyrimidin-4(3,2)-pyridinacyclononaphan-1^6-yl)—N-methylbenz amide], the 50% inhibitory concentration (IC50) at BTK is greater than 10000 nM; on RET wt, 48.9 nM; at SRC it was greater than 10000 nM; at BTK C481S, greater than 10000 nM; on RET G810R, greater than 10000 nM; on RET V804M, greater than 10000 nM.
As to `COC(=O)Nc1ccc(-c2cn3ncc4c3nc2NCc2cc(F)cnc2O[C@@H](C)CNC4=O)c(Cl)c1` [Compound 27], the IC50 at BTK came out at 15.4 nM; on RET wt, 0.629 nM; at SRC, 38.4 nM; on BTK C481S, 16.9 nM; at RET G810R, 17.2 nM; at RET V804M, 3.25 nM.
Take `C[C@H]1CNC(=O)c2cnn3c(N)c(-c4ccccc4)c(nc23)NCc2cc(F)cnc2O1` [Compound 28, (S, 1^3E, 1^4E)-1^7-amino-4^5-fluoro-6-methyl-1^6-phenyl-5-oxa-2,8-diaza-1(5,3)-pyrazolino[1,5-a]pyrimidin-4(3,2)-pyridinacyclononaphan-9-one]: the half-inhibitory concentration (IC50) on BTK turned out to be 1.11 nM; on RET wt, 0.359 nM; at SRC, 0.456 nM; at BTK C481S, 0.96 nM; at RET G810R, 12 nM; at RET V804M it was 9.18 nM.
For `COC(=O)Nc1ccc(-c2cn3ncc4c3nc2NCc2cc(F)cnc2O[C@@H](C)CNC4=O)cc1` [Compound 30, methyl (4-((S, 1^3E, 1^4E)-4^5-fluoro-6-methyl-9-oxo-5-oxa-2,8-diaza-1(5,3)-pyrazolo[1,5-a]pyrimidin-4(3,2)-pyridinacyclononaphan-1^6-yl)phenyl) carbamate], the half-inhibitory concentration (IC50) was 5180 nM on BTK; 5.1 nM at RET wt; 3110 nM at SRC; 15.1 nM at RET G810R; greater than 10000 nM on TRKa; 76 nM on RET V804M.
Regarding `CC(C)OC(=O)Nc1ccc(-c2cn3ncc4c3nc2NCc2cc(F)cnc2O[C@@H](C)CNC4=O)cc1` [Compound 31, iso-propyl (4-((S, 1^3E, 1^4E)-4^5-fluoro-6-methyl-9-oxo-5-oxa-2,8-diaza-1(5,3)-pyrazolo[1,5-a]pyrimidin-4(3,2)-pyridinacyclononaphan-1^6-yl)phenyl)carbamate], the IC50 at BTK is greater than 10000 nM; at RET wt, 4.05 nM; on SRC, 843 nM; at RET G810R, 12.3 nM; at TRKa it was greater than 10000 nM.
As to `C[C@H]1CNC(=O)c2cnn3cc(-c4ccccn4)c(nc23)NCc2cc(F)cnc2O1` [Compound 33], the results for the IC50 at BTK, on RET wt and at SRC were greater than 10000 nM, 407 nM and 196 nM, respectively.
In the case of `C[C@H]1CNC(=O)c2cnn3cc(-c4ccc(N5CCOC5=O)cc4Cl)c(nc23)NCc2cc(F)cnc2O1` [Compound 40, (S, 1^3E, 1^4E)-1^6-(2-chloro-4-(2-oxaoxazolidin-3-yl)phenyl)-4^5-fluoro-6-methyl-5-oxa-2,8-diaza-1(5,3)-pyrazolo[1,5-a]pyrimidin-4(3,2)-pyridinacyclononaphan-9-one], the half-maximal inhibitory concentration (IC50) on BTK turned out to be 176 nM; at RET wt, 465 nM; on SRC, 105 nM.
Take `CNc1ccc(-c2c3nc4c(cnn4c2N)C(=O)NC[C@H](C)Oc2ncc(F)cc2CN3)cc1` [Example 54, (S, 1^3E, 1^4E)-1^7-amino-4^5-fluoro-6-methyl-1^6-(4-(methylamino)phenyl)-5-oxo-2,8-diaza-1(5,3)-pyrazolo[1,5-a]pyrimidin-4(3,2)-pyridinacyclononaphan-9-one]: the IC50 on BTK is 48 nM; at RET wt, 105 nM; at SRC it was 2.1 nM; at BTK C481S it was 104 nM; at RET G810R, greater than 1000 nM; on RET V804M, greater than 1000 nM.
Consider `Cc1ccc(-c2c3nc4c(cnn4c2N)C(=O)NC[C@H](C)Oc2ncc(F)cc2CN3)cc1` [Example 56], for which the half-inhibitory concentration (IC50) was 1.5 nM on BTK; 1.2 nM on RET wt; 0.13 nM at SRC; 0.96 nM at BTK C481S; 49.7 nM at RET G810R.
Regarding `C[C@H]1CNC(=O)c2cnn3c(N)c(-c4ccc(NC(=O)OCC5CC5)cc4)c(nc23)NCc2cc(F)cnc2O1` [Example 63, cyclopropylmethyl (4-((S, 1^3E, 1^4E)-1^7-amino-4^5-fluoro-6-methyl-9-oxo-5-oxo-2,8-diaza-1(5,3)-pyrazolo[1,5-a]pyrimidin-4(3,2)-pyridinacyclononaphan-1^6-yl)phenyl)carbamate], the IC50 is 33 nM on BTK; 1.2 nM at RET wt; 2.8 nM on SRC; 22 nM on RET G810R; 65 nM at TRKa; 3.5 nM at RET V804M.
For the compound `CNc1c(-c2ccccc2)c2nc3c(cnn13)C(=O)NC[C@H](C)Oc1ncc(F)cc1CN2` [Example 64, (S, 1^3E, 1^4E)-4^5-fluoro-6-methyl-1^7-(methylamino)-1^6-phenyl-5-oxa-2,8-diaza-1(5,3)-pyrazolopyrimidin-4(3,2)-pyridinacyclononaphan-9-one], the IC50 was greater than 1000 nM at BTK, 128 nM at RET wt and 61 nM on SRC.
On to `C[C@H]1CNC(=O)c2cnn3c(N)c(-c4ccccc4F)c(nc23)NCc2cc(F)cnc2O1` [Example 66], for which the IC50 at BTK was 1.7 nM; at RET wt, 1.3 nM; on BTK C481S, 1.45 nM; on RET G810R, 53.7 nM; on TRKa, 101 nM.
